Data: patent US20060039866A1, “Method for treating sleep-related breathing disorders” (Cypress Bioscience, Inc., priority 2004, published 2006)

What was measured:
[1] = treating OSA with MER 810; conditions: in vivo
From the text: The latter has been associated with worsening OSA symptoms due to reduction in upper airway tone in animal models. However, this pharmacology may also increase SWS and increase respiratory drive via peripheral effects, while its serotonin (5-HT) reuptake inhibition and 5-HT1A agonist activities decrease REM sleep. The 5-HT1A agonist activity also increases respiratory drive and may increase upper airway muscle tone (Homer). Adding a noradrenergic alpha1 agonist, alpha2 antagonist or reuptake inhibitor bolsters the latter effect.

[2] = system: patients with sleep apnea; conditions: cited from earlier work; for benefit in OSAS / obstructive sleep apnea: individuals with obstructive apnea
[3] = system: animal model of sleep apnea; conditions: cited from earlier work
rat model = conditions: cited from earlier work
[4] = individuals with obstructive sleep apnea

CC1CN(c2cccc(Cl)c2)CCN1CCCn1nc2ccccn2c1=O (stereo not shown) [MER 810]
effectiveness in treating OSA [1]: quite effective

CNCCCC1c2ccccc2C=Cc2ccccc21 [Protriptyline]
results of several small trials ([2]; individuals with OSAS): variable results | side effects ([2]; several small trials): frequent and significant side effects

CC(=O)Nc1nnc(S(N)(=O)=O)s1 [acetazolamide, N-(5-[Aminosulfonyl]-1,3,4-thiadiazol-2-yl)acetamide]
apnea/hypopnea frequency ([2]; Whyte et al., Sleep): improvement in apnea/hypopnea frequency | frequency of 4% desaturation ([2]; Whyte et al., Sleep): decreased the frequency of 4% desaturation

Nc1ncnc2c1ncn2[C@@H]1O[C@H](CO)[C@@H](O)[C@H]1O [adenosine]
reducing apnea [3]: somewhat effective

CCN1CC(CCN2CCOCC2)C(c2ccccc2)(c2ccccc2)C1=O (stereo not shown) [doxapram]
average arterial oxygen saturation [2, 4]: did not alter | length of apneas [2, 4]: decrease the length of apneas

CN1CCN2c3ncccc3Cc3ccccc3C2C1 (stereo not shown) [mirtazapine, 1,2,3,4,10,14b-hexahydro-2-methylpyrazino[2,1-a]pyrido[2,3-c]benzazepine]
efficacy in the rat model (rat model): appeared effective

C=CCN1CC[C@]23c4c5ccc(O)c4O[C@H]2C(=O)CC[C@@]3(O)[C@H]1C5 [naloxone]
benefit in OSAS / obstructive sleep apnea [2]: only slightly helpful

Cn1c(=O)c2[nH]cnc2n(C)c1=O [theophylline]
benefit in OSAS / obstructive sleep apnea [2]: of no use | benefit in central apnea ([2]; patients with central apnea): may benefit

medroxyprogesterone
benefit in OSAS / obstructive sleep apnea [2]: no consistent benefit
